Assay [1] has as its system COX enzymes (D122 mouse Lewis lung carcinoma cells). The assay can be described thus: COX inhibition, PGE2 production in D122 cells. It is filed as cell-based. The settings on record: average of two experiments in triplicate. The source says: In addition, the aromatic rings of the diphenylamine moiety were substituted with different electron donating or withdrawing groups. In a first screen, two parameters were checked: (a) the non-selective inhibition of COX-1/COX-2 enzyme activities, measured by the production of PGE2 in cultured mouse colon adenocarcinoma (CT26) and mouse Lewis lung carcinoma cells (D122) cells; (b) the M-channel activity, measured by the heterologous coexpression of Kv7.2 and Kv7.3 subunits in Chinese hamster ovary (CHO) cells.
Mouse colon adenocarcinoma CT26 and mouse Lewis lung carcinoma D122 cells were grown in DMEM (D122) or RPMI (CT26) supplemented with 10% fetal calf serum, 4% glutamine, 1% penicillin-streptomycin-nystatin and 3% non essential amino acids (D122) and maintained in a humidified 37°C incubator with 5% CO2. For the COX assays, cells were grown onto 24 multiwell plates. Before the assay, cells were washed with serum-free medium; then tested compounds were added to the medium and incubated for 30 min at 37°C after which 30 µM arachidonic acid was added and incubated for additional 20 min. At the end of the incubations, 10 µM indomethacin was added to stop the reaction and medium was transferred to another 24 multiwell plate for measuring PGE2 production by radioimmunoassay (DuPont-NEN; Boston, MA) according to manufacturer protocol. Protein determination was assayed on scraped cells and was used to normalize the amount of PGE2 production. Assays with purified ovine COX-1 and human recombinant COX-2 were performed using the COX inhibitor screening assay (Cayman chemical company, Ann Arbor, MI), according to manufacturer protocol.

The subject of another assay is rat hippocampal neurons. The assay can be described thus: Current-clamp recording of cultured hippocampal neurons. It is filed as cell-based. As to the method:
For hippocampal neuronal cultures, Sprague-Dawley rat embryos (E18) were removed by caesarian section and their hippocampi were dissected out. The tissue was digested with papain for 20 min, triturated to a single-cell suspension, and plated at a density of 40,000 cells per ml on a substrate of bovine collagen type IV and 100 µg/ml poly-L-lysine in 13 mm diameter glass coverslips of a 24-multiwell plate. The culture medium consisted of Modified Eagle's Medium containing 5% horse serum (Biological Industries, Beit HaEmek, Israel), B-27 neuronal supplement (Invitrogen, Carlsbad, CA), 100 U/ml penicillin, 100 µg/ml streptomycin, and 2 mM glutamine. D-glucose was supplemented to a final concentration of 6 g/l. Cytosine-1-D-arabinofuranoside (5 µM) was added after 5 days to arrest glial cell proliferation. For electrophysiological recordings hippocampal neurons were used at 10–14 days in culture. All cultures were maintained at 37°C in humidified air containing 5% CO2.
For current-clamp recordings in primary cultured neurons, the patch pipettes were filled with (in mM): 135 KCl, 1 K2ATP, 1 MgATP, 2 EGTA, 1.1 CaCl2, 5 glucose, 10 HEPES, adjusted with KOH at pH 7.4 (315 mOsm). […] A liquid junction potential of about −15.6 mV was measured between the intracellular and saline solutions and corrected on-line. […]

In assay [2] the test system is primary hippocampal neurons (glutamate and GABA release). The assay can be described thus: Spontaneous and miniature post-synaptic currents in cultured hippocampal neurons. The assay is classed as cell-based, rat. As to the method: Because of their slow activation and their lack of inactivation, M-channels could modulate neuronal activity during repetitive spike discharge and tune neurotransmitter release. Figure 8 illustrates the effect of compound 15 on synaptic transmission and transmitter release. Spontaneous excitatory and inhibitory post-synaptic currents (sEPSCs and sIPSCs) were recorded from dense cultures of primary hippocampal neurons, using the voltage-clamp configuration of the whole-cell patch-clamp technique. […] Spontaneous EPSCs were recorded at −70 mV and were pharmacologically isolated by blocking GABAA receptor-mediated inhibitory post-synaptic currents (with 10 µM bicuculline and 30 µM picrotoxin). The sEPSCs were […] mediated by the activation of AMPA receptors and to a lesser extent of NMDA receptors, as they were blocked by 10 µM NBQX and 10 µM AP-5. Thus, sEPSCs reflect the synaptic release of glutamate. Under control conditions, sEPSCs appeared as repetitive bursts whose frequency was variable, ranging from 0.3 to 2 Hz and increasing with the density of the hippocampal culture. […] Consequently, compound 15 reduced by about 50% the total charge transfer as well as the charge transfer within the bursts (Figure 8D–F).
For hippocampal neuronal cultures, Sprague-Dawley rat embryos (E18) were removed by caesarian section and their hippocampi were dissected out. […]
Spontaneous excitatory postsynaptic currents (EPSCs) were recorded in the voltage-clamp configuration of the whole-cell patch-clamp technique at a holding potential of −70 mV as previously described; the extracellular solution contained (in mM) 160 NaCl, 2.5 KCl, 10 HEPES, 10 glucose, 2 CaCl2; pH 7.3 (325 mOsm), to which 30 µM picrotoxin and 10 µM bicuculline methyl iodide were added. […] Spontaneous inhibitory postsynaptic currents (IPSCs) were recorded at a holding potential of −70 mV; the extracellular solution contained (in mM) 160 NaCl, 2.5 KCl, 10 HEPES, 10 glucose, 2 CaCl2; pH 7.3 (325 mOsm), to which 10 µM NBQX and 10 µM AP-5 were added. […]

For assay [3], the system named is MES-induced tonic hind limb extension. The assay can be described thus: Maximal electroshock seizure (MES) model. The settings on record: Mus musculus, ip; mice, intraperitoneal, 30 min before electroshock (0.2 sec, 50 mA); read-out: ED50, protection against tonic extension caused by MES. It is filed as in vivo, mouse. As to the method:
This test is generally thought to be a model of generalized tonic-clonic seizure in human.
The anti-convulsant effect was measured by the maximal electroshock seizure model (MES) in ICR mice as previously described. The procedures followed for experimentation and maintenance of the animals were approved by the animal research ethics committee of Tel Aviv University and in accordance with the Guide for the Care and Use of Laboratory Animals (1996, National Academy of Sciences, Washington DC). Briefly, maximal electroshock was induced in adult mice by means of two transcorneal electrodes delivering an alternative current of 50 mA at 60 Hz for 0.2 sec using rodent shocker (Hugo Sachs Electronik, type 221). […] The drugs dissolved in 0.9% saline were administered intraperitoneally 30 min before the electroshock was performed. Animals failing to show tonic hind limb extension were scored as protected and were expressed in percentage.
For orientation: Protection in the maximal electroshock model is a classic sign of anticonvulsant action.

The values that follow come from PMC2131780, “A Tale of Switched Functions: From Cyclooxygenase Inhibition to M-Channel Modulation in New Diphenylamine Derivatives” (PLoS ONE, 2007).

Structures are written as SMILES. Bounds are passed on as bounds.

The term IC50 denotes the concentration that gives 50% inhibition. A lower IC50 goes with greater potency. A word on the inhibition: it is the drop in the measured response relative to a control, in per cent. Usually ED50 stands for the midpoint of the dose-response relation. As for `O=C(Cc1cc([N+](=O)[O-])ccc1Nc1c(Cl)cccc1Cl)OCCO` [Compound 15], half-maximal inhibition in assay [1] (IC50) required 0.229 µM. Besides, the “number of evoked action potentials, hippocampal neurons” value in the assay on rat hippocampal neurons (25 µM, 75–200 pA for 400 ms) is 2.1±0.5. Besides, the “hyperpolarization of hippocampal neurons” value with rat hippocampal neurons (exposed to compound) is on record as −8.5 mV. The “reduction of sEPSCs total charge transfer and charge transfer within bursts” value in assay [2] (25 µM, holding −70 mV) is “about 50%”. For the same compound, the inhibition at 25 µM in assay [2] (Rattus norvegicus, Hippocampal neuron, 25 µM, holding −70 mV, read-out: inhibition of sIPSCs frequency of spontaneous occurrence) was greater than 98%. In assay [2] (not shown), the “effect on amplitude and kinetics of miniature EPSCs and IPSCs” value was “did not affect”. In addition, the ED50 in assay [3] worked out at 12 mg/kg.
